Reference: US5084449A, “Anti-bacterial compositions comprising a substituted bis-(4-aminophenyl)-sulfone and a dihydro-folic acid reductase” (Dr. Karl Thomae GmbH, priority 1984, dated 1992)

system: not listed separately; test: methemoglobin formation after oral administration to cats; assay type: in vivo; conditions: 200 mg/kg by oral route
From the text: Moreover, in contrast to Dapsone®, the new compounds are well tolerated and in particular show a very low methemoglobin formulation.

| methemoglobin formulation | SMILES |
| --- | --- |
| no methemoglobin formulation is detected | N#Cc1cc(N)ccc1S(=O)(=O)c1ccc(N)cc1 [Substance I, 4,4'-Diamino-2-cyano-diphenylsulfone] |
| no methemoglobin formulation is detected | CCCNc1ccc(S(=O)(=O)c2ccc(N)cc2)c(C)c1 [Substance M, 4'-Amino-2-methyl-4-propylamino-diphenylsulfone] |

system: 7,8-dihydropteroic acid-synthetase; test: inhibiting effect on 7,8-dihydropteroic acid synthesis in cell-free enzyme extract of plasmodia (HPLC); assay type: biochemical; conditions: concentration giving 50% reduction of 7,8-dihydropteroic acid synthesis; cell-free enzyme extract of Plasmodium berghei; incubation 4 hours; HPLC/UV; read-out: i50
Experimental: M=4'-Amino-2-methyl-4-propylamino-diphenylsulfone were tested for their biological activity in cell-free enzyme extract of Plasmodiumberghei as follows.
Plasmodia are isolated from mouse blood infected with Plasmodium berghei in accordance with the following reference (Heidrich, H. -G. et al., Z. Parasitenkd. 59: 151 (1979). The plasmodia were opened by ultrasound. Proteins with […] acid synthetase activity are concentrated by gel filtration.
The inhibiting effect on 7,8-dihydropteroic acid synthesis of plasmodia is determined as follows:
Under optimum reaction conditions, i.e. Vmax for the reaction which is to be inhibited, the concentration of inhibitor in the new compounds resulting in a 50% reduction in the enzyme synthesis performance is determined. For this purpose the quantity of 7,8-dihydropteroic acid synthesised from the enzyme extract is determined by means of high performance liquid chromatography (HPLC) using a UV detector after an incubation period of 4 hours. It was established that the synthesis of 7,8-dihydropteroic acid proceeded in a linear manner during this period.
The i50 values obtained by this method for a selection of the compounds claimed and those of the comparison preparations bis (4-aminophenyl)sulfone (Dapsone®, DDS) and N^1 -(5,6-dimethoxy-4-pyrimidinyl)-sulfanilamide (Fanasil®) are given in the following Table: […]

| IC50 [µM] | SMILES |
| --- | --- |
| 2.1 | CCNc1ccc(S(=O)(=O)c2ccc(N)cc2)c(Cl)c1 [Substance A, 4-Ethylamino-4'-amino-2-chloro-diphenylsulfone] |
| 2.67 | CC(C)Nc1ccc(S(=O)(=O)c2ccc(N)cc2)c(Cl)c1 [Substance B, 4'-Amino-2-chloro-4-isopropylamino-diphenylsulfone] |
| 2.62 | CCNc1ccc(S(=O)(=O)c2ccc(N)cc2)c(C)c1 [Substance C, 4-Ethylamino-4'-amino-2-methyl-diphenylsulfone] |
| 5.86 | CCNc1ccc(S(=O)(=O)c2ccc(N)cc2)c(C(F)(F)F)c1 [Substance D, 4-Ethylamino-4'-amino-2-trifluoromethyl-diphenyl-sulfone] |
| 4.1 | CNc1cc(N)ccc1S(=O)(=O)c1ccc(N)cc1 [Substance H, 4,4'-Diamino-2-(N-methylamino)-diphenylsulfone] |
| 2.94 | CNc1ccc(S(=O)(=O)c2ccc(N)cc2)c(C)c1 [Substance L, 4'-Amino-2-methyl-4-methylamino-diphenylsulfone] |
| 2.44 | CCCNc1ccc(S(=O)(=O)c2ccc(N)cc2)c(C)c1 [Substance M, 4'-Amino-2-methyl-4-propylamino-diphenylsulfone] |

Continued, compound first:

| SMILES | IC50 [µM] |
| --- | --- |
| Nc1ccc(S(=O)(=O)c2ccc(N)cc2)cc1 [Dapsone ®, bis (4-aminophenyl)sulfone, reference compound] | 12.4 |
| COc1ncnc(NS(=O)(=O)c2ccc(N)cc2)c1OC [Fanasil ®, N^1-(5,6-dimethoxy-4-pyrimidinyl)-sulfanilamide, reference compound] | 200 |
| Nc1ccc(S(=O)(=O)c2ccc(N)cc2CO)cc1 [Substance E, 4,4'-Diamino-2-hydroxymethyl-diphenylsulfone] | 4.9 |
| CC(O)c1cc(N)ccc1S(=O)(=O)c1ccc(N)cc1 (stereo not shown) [Substance F, 4,4'-Diamino-2-(1-hydroxyethyl)-diphenylsulfone] | 10.4 |
| CN(C)c1cc(N)ccc1S(=O)(=O)c1ccc(N)cc1 [Substance G, 4,4'-Diamino-2-(N,N-dimethylamino)-diphenylsulfone] | 12.9 |
| N#Cc1cc(N)ccc1S(=O)(=O)c1ccc(N)cc1 [Substance I, 4,4'-Diamino-2-cyano-diphenylsulfone] | 12.5 |
| CC(=O)c1cc(N)ccc1S(=O)(=O)c1ccc(N)cc1 [Substance K, 4,4'-Diamino-2-methylcarbonyl-diphenylsulfone] | 12.9 |
